{"source": "patent US11771736B2", "about": "“Composition comprising a therapeutic agent and a CXCR4 selective antagonist and methods for using the same” (Mainline Biosciences (Shanghai) Co., Ltd., priority 2017, dated 2023)", "biological_target": "T1, Human chemokine receptor CXCR4 (Homo sapiens, UniProt P61073)", "T1 construct": "expressed in transfected cells; host or cells: Chem-1 cells (membranes)", "T1 sequence (P61073 whole entry)": "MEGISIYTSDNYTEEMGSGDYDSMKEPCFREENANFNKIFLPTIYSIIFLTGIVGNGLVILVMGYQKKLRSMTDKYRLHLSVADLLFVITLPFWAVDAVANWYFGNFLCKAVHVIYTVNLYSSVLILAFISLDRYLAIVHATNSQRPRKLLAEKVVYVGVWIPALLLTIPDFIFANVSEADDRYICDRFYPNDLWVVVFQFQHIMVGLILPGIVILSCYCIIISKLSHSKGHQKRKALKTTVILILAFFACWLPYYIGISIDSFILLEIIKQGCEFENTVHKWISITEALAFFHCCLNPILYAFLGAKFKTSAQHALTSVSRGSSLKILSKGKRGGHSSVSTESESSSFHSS", "experiment": "Human CXCR4/125I-SDF-1α binding inhibition assay", "experimental": "Non-specific binding was estimated in the presence of 30 nM SDF-1α.", "note": "Numbered stars: 1 amine (or outer) side, 2 acyl side, 3 side chain; on linkers, the order of the positions; unused ones are H or OH. Bridge positions count the residues as written; N and C are the ends. Square brackets hold non-standard residues; d marks the D form. Peptide text beside a SMILES is read from it. * marks the point of attachment. 2Nal = N[C@@H](Cc1ccc2ccccc2c1)C(=O)O; oXylylene = c1ccc(C[*:2])c(C[*:1])c1; Lys(iPr) = CC(C)NCCCC[C@H](N)C(=O)O; Bz = O=C(c1ccccc1)*", "data": [{"compound": "CC(C)NCCCC[C@H](NC(=O)[C@@H]1CSCc2ccccc2CSC[C@H](NC(=O)c2ccccc2)C(=O)N[C@@H](Cc2ccc(O)cc2)C(=O)N[C@@H](CCCCNC(C)C)C(=O)N[C@H](CCCNC(=N)N)C(=O)N[C@@H](Cc2ccc3ccccc3c2)C(=O)NCC(=O)N1)C(=O)NCC(N)=O", "note": "[Example 20] (Bz-CY[Lys(iPr)][dR][2Nal]GC[Lys(iPr)]G-NH2; linker 1-7 via oXylylene)", "values": [{"measurement": "IC50", "result": 1.3, "unit": "nM"}, {"measurement": "Kb", "result": 0.39, "unit": "nM"}]}]}
